Our source for the IC50 and DC50 values is patent publication US20250115581A1, “SUBSTITUTED PIPERIDINES AS CK1A DEGRADERS” (Monte Rosa Therapeutics, Inc., priority 2022, published 2025).

One test addresses CRBN/DDB1 (Homo sapiens, UniProt Q96SW2). Nature of the test: HTRF binding assay (displacement of Cy5-thalidomide probe from CRBN/DDB1). The note with it: CRBN/DDB1 2.5 nM, Cy5-Thalidomide 100 nM, 30 min; geometric mean; read-out: HTRF_Thali_Disp_DR_geo_IC50. The source says:
Binding of test compounds to CRBN/DDB1 was monitored in an HTRF assay using 1-[5-({2-[2-(2-{[2-(2,6-dioxopiperidin-3-yl)-1,3-dioxo-2,3-dihydro-1H-isoindol-4-yl]oxy}acetamido)ethoxy]ethyl}carbamoyl)pentyl]-3,3-dimethyl-2-[(1E,3E)-5-[(2E)-1,3,3-trimethyl-5-sulfo-2,3-dihydro-1H-indol-2-ylidene]penta-1,3-dien-1-yl]-3H-indol-1-ium-5-sulfonate as a fluorescent probe. In this assay, compounds displace the fluorescently labeled thalidomide-based probe bound to CRBN and fluorescence is monitored with increasing compound concentration. Assays were conducted in Greiner white 384 well HiBase plates (Cat. No 784075-25) in 10 μL total volume. A one pot detection solution of CRBN/DDB1 (2.5 nM), anti-His Terbium Cryptate Gold (1×, PerkinElmer Cat. #: 61HI2TLB), and Cy5-Thalidomide (100 nM, Tenova Cat.: T52461) was prepared in 20 mM HEPES, 20 mM NaCl, 0.2 mM TCEP, 0.2 mM EDTA, and 0.005% Tween20 was dispensed to each assay plate. Test compounds were stored in dry, ambient temperatures at 10 mM. A 10-point, 1:3 dilution series was prepared from 10 mM stock concentrations in Echo-compatible LDV plates. 10 nL of each compound dilution series was dispensed into assays wells using an Echo 650 (Labcyte inc. USA). 10 nL of 10 mM lenalidomide (Selleckchem Cat no. S1029) was transferred into the active-control wells for the assay and 10 nL of DMSO was transferred into the negative control wells. The assay was then allowed to incubate for 30 min at ambient temperature after transferring the test compounds. Plate measurements were taken on a Pherastar FSX (BMG Labtech, Germany) using the HTRF Red filter (Ex. 337 nm, em1: 620 nm, em2: 665 nm) (Flashes: 50, Integration time: 60-400 μs, Z-height: 10 mm, Ratio-multiplier: 10,000). Analysis, HTRF ratio and IC50 values were derived using KNIME analytics (KNIME Zurich) transformation and fitting within Collaborative Drug Discovery (Collaborative Drug Discovery USA) using a 4-parameter logistic fit. HTRF ratio calculation was performed using the following formula: […]
where em665 nm represents the measured emission at 665 nm upon excitation at 337 nm and em620 nm the measured emission at 620 nm upon excitation at 337 nm. The 4 parameter logistic fitting model was performed using the following formula: […]
where Y represents the HTRF ratio response (as defined previously), X the compound concentration in μM, Ymin the minimum response plateau, Ymax the maximum response plateau, IC50 the concentration of […] that gives a response half way between Ymin and Ymax and HillSlope the steepness of the family of curves. No fitting model constraints was applied on Ymin, or Ymax whilst IC50>0 and −0.5>HillSlope>−3 Cheng-Prusoff transformation
Ki values were derived from the geometric mean of the IC50 values using the Cheng-Prusoff transformation:
where [L] represents the concentration of fluorescent probe in […], Kd the affinity (binding constant) of the fluorescent probe in units of μM and IC50 the concentration of agonist that gives a response halfway between Ymin and Ymax (as described in 1.2.1)
Analysis and IC50 values were derived using KNIME analytics (KNIME, Zurich) transformation and fitting within Collaborative Drug Discovery (Collaborative Drug Discovery, USA) as described in 1.2.1. Ki values were derived from the geometric mean of the IC50 values using the Cheng-Prusoff transformation as described in 2.2.2. Data was visualized in GraphPad Prism 8.1.2 (GraphPad, USA) and reported as mean and standard deviation. Microsoft Office Excel 2012 (Redmond, WA) was used for calculation of mean and standard deviation.
IC50 data are reported in Table 3 for compounds in Table 1. In Table 3 below, According to the code, A represents a IC50 value of ≤0.1 μM, B represents a IC50 value >0.1 μM and ≤1 μM, C represents an IC50 value >1 μM.
On the technique in general: TR-FRET usually uses a lanthanide donor and a delayed reading to cut background.

The next test deals with T1, CK1α (Homo sapiens, UniProt P48729+Q96SW2).
T1 construct: HEK293 clonal lines with CRISPR KI HiBiT tag on CSNK1A1; host or cells: HEK293 clonal line, CRISPR knock-in HiBiT at the CSNK1A1 locus, stably expressing LgBiT
Nature of the test: CK1α NanoBit Assay (HiBiT-tagged CSNK1A1 in HEK293 cells, luminescence). In kind it is cell-based. The conditions noted are these: 24 h. The method, then:
HEK293 clonal lines with CRISPR KI HiBiT tag on CSNK1A1 and stably expressing LgBiT protein were obtained from Promega (Madison, WI). Cells were plated at 5000 cells per well using Multiflo (BioTek) in 384-well white solid bottom plates (Corning, 3570BC) in 25 μl volume in DMEM media (DMEM, high glucose, HEPES, no phenol red (ThermoFisher Scientific, 21063029)) containing 10% FBS (Corning, 35-075-CV), 1% Penicillin/Streptomycin ((ThermoFisher Scientific, 15140-122), and 0.2% Endurazine (Nano-Glo Endurazine Live Cell Substrate (Promega, N2571)). Cells were incubated for 16 hours at 37° C., 5% CO2. Depending on experiment 25 or 75 nL of a compound at 10 mM were added into the plate using an Echo® 650 liquid handler (Labcyte) to achieve final concentration of 10 or 30 μM in wells. Cells were incubated at 37° C., 5% CO2 for 24 hours and then signal was read on a Pherastar FSX using “LUM plus” optic module.
Data analysis was performed in Scinamic (Scinamic, Cambridge, MA). Luminescence response (R) was calculated by the formula: response=100*(S−N)/(P−N) where S is the signal of the well, N and P the mean negative and positive control values respectively of the same plate. The luminescence response was then fitted in Scinamic using a 3-parameter agonist logistic fit (hillslope=1, EC50>0, top/bottom unconstrained).
DC50 data are reported in Table 2 for compounds in Table 1. In Table 2 below, According to the code, A represents a DC50 value of ≤0.1 μM, B represents a DC50 value >0.1 μM and ≤1 μM, C represents an DC50 value >1 μM.

Molecules are shown by their SMILES.

T1 sequence (P48729 whole entry): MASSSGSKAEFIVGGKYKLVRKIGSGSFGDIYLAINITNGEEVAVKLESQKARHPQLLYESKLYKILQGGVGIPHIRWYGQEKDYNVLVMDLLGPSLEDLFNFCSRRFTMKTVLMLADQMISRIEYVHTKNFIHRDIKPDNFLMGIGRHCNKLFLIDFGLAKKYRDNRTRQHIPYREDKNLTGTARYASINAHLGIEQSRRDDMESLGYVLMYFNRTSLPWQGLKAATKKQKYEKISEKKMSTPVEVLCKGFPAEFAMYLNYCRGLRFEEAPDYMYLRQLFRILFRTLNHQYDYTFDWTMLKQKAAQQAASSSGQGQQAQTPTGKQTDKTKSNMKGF
T1 sequence (Q96SW2 whole entry): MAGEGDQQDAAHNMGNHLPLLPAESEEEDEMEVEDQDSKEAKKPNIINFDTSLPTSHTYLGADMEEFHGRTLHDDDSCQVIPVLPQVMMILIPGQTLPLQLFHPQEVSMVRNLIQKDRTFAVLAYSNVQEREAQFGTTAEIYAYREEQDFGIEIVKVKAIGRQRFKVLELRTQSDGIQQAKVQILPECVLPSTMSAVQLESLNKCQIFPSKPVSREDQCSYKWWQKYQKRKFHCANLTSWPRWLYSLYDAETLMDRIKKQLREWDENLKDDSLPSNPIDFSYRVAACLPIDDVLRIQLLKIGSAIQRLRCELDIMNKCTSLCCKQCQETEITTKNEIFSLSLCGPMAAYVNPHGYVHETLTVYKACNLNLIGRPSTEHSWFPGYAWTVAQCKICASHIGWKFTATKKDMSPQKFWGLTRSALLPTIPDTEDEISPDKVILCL
T1 sequence (Q16531 whole entry partner): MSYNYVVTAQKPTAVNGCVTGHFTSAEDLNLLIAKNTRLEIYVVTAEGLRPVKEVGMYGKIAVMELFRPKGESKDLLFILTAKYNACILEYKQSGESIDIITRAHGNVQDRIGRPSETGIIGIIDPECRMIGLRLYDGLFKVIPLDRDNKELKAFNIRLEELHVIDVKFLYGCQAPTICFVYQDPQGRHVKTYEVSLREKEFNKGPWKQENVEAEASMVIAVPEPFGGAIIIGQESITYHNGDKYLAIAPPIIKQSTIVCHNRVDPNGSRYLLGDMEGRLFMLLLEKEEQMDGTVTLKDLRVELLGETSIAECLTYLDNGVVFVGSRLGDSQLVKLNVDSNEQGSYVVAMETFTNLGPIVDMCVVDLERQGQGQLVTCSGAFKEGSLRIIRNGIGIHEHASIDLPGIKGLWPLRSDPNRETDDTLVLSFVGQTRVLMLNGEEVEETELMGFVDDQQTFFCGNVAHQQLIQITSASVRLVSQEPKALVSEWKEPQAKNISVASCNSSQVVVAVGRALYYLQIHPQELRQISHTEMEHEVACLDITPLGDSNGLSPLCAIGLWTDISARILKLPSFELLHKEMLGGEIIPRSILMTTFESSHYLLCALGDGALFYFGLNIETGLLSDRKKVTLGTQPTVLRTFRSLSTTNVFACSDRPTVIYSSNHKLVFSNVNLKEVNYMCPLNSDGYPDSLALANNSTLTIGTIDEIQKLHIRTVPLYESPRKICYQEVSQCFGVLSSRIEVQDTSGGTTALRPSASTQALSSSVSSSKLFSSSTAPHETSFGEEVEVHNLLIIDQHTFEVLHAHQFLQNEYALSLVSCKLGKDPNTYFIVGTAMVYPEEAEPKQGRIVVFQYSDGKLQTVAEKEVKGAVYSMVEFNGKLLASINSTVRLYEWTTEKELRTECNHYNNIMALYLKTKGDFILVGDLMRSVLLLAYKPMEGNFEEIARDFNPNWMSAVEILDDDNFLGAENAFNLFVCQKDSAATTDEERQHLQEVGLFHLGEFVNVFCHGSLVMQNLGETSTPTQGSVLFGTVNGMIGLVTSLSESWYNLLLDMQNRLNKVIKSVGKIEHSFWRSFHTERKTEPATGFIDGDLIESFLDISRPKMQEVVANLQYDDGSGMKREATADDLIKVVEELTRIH
CRBN/DDB1, sequence (Q96SW2 whole entry): as the sequence (Q96SW2 whole entry) above
CRBN/DDB1, sequence (Q16531 whole entry partner): as the sequence (Q16531 whole entry partner) above

Consider `Cc1cccc(N2CCN(c3ccc4c(c3)CN(C3CCC(=O)NC3=O)C4=O)C2=O)c1` (centres unmarked) [Compound 110, 3-(1-oxo-5-(2-oxo-3-(m-tolyl)imidazolidin-1-yl)isoindolin-2-yl)piperidine-2,6-dione], for which the IC50 at CRBN/DDB1 fell in the range of 100 to 1000 nM. The DC50 on CK1α was not above 0.1 µM.
Consider `O=C1CCC(N2Cc3cc(N4CCN(C5CCOC5)C4=O)ccc3C2=O)C(=O)N1` (centres unmarked) [Compound 162, 3-(1-oxo-5-(2-oxo-3-(tetrahydrofuran-3-yl)imidazolidin-1-yl)isoindolin-2-yl)piperidine-2,6-dione], for which the IC50 on CRBN/DDB1 is 100 to 1000 nM. The DC50 at CK1α lay within 0.1 to 1 µM.
The like results for `CN1CCCC1c1ccc(N2CCN(c3ccc4c(c3)CN(C3CCC(=O)NC3=O)C4=O)C2=O)cc1` (centres unmarked) [Compound 177, 3-(5-(3-(4-(1-methylpyrrolidin-2-yl)phenyl)-2-oxoimidazolidin-1-yl)-1-oxoisoindolin-2-yl)piperidine-2,6-dione] were, in that order, 100 to 1000 nM and more than 1 µM.
On the same counts, the results for `CC1C(C)N(c2ccc3c(c2)CN(C2CCC(=O)NC2=O)C3=O)C(=O)N1c1ccccc1` (centres unmarked) [Compound 113, 3-(5-(4,5-dimethyl-2-oxo-3-phenylimidazolidin-1-yl)-1-oxoisoindolin-2-yl)piperidine-2,6-dione] are 100 to 1000 nM and more than 1 µM.
On the same counts, the results for `COCc1ccc(N2CCN(c3ccc4c(c3)CN(C3CCC(=O)NC3=O)C4=O)C2=O)cc1` (centres unmarked) [Compound 128, 3-(5-(3-(4-(methoxymethyl)phenyl)-2-oxoimidazolidin-1-yl)-1-oxoisoindolin-2-yl)piperidine-2,6-dione] are 100 to 1000 nM and not above 0.1 µM.
`COc1ccc(-n2ccn(-c3ccc4c(c3)CN(C3CCC(=O)NC3=O)C4=O)c2=O)cc1` (centres unmarked) [Compound 102, 3-(5-(3-(4-methoxyphenyl)-2-oxo-2,3-dihydro-1H-imidazol-1-yl)-1-oxoisoindolin-2-yl) piperidine-2,6-dione]: the IC50 at CRBN/DDB1 is 100 to 1000 nM. This molecule registered a DC50 at CK1α of more than 1 µM.
The like results for `C[C@@H]1CN(c2ccc3c(c2)CN(C2CCC(=O)NC2=O)C3=O)C(=O)N1C1CCC1` (stereo partly drawn) [Compound 142, 3-(5-((R)-3-cyclobutyl-4-methyl-2-oxoimidazolidin-1-yl)-1-oxoisoindolin-2-yl)piperidine-2,6-dione] were, in that order, 100 to 1000 nM and not above 0.1 µM.
Turning to `Cc1ccc(N2CCN(c3ccc4c(c3)CN(C3CCC(=O)NC3=O)C4=O)C2=O)c(C)c1` (centres unmarked) [Compound 150, 3-(5-(3-(2,4-dimethylphenyl)-2-oxoimidazolidin-1-yl)-1-oxoisoindolin-2-yl)piperidine-2,6-dione], the IC50 on CRBN/DDB1 lay in the range of 100 to 1000 nM. At CK1α, this molecule displayed a DC50 not above 0.1 µM.
The like results for `O=C1CCC(N2Cc3cc(N4CCN(c5ccc(C6CCC6)cc5)C4=O)ccc3C2=O)C(=O)N1` (centres unmarked) [Compound 131, 3-(5-(3-(4-cyclobutylphenyl)-2-oxoimidazolidin-1-yl)-1-oxoisoindolin-2-yl)piperidine-2,6-dione] were, in that order, more than 1000 nM and not above 0.1 µM.
In the case of `CC(C)c1ccc(N2CCN(c3ccc4c(c3)CN(C3CCC(=O)NC3=O)C4=O)C2=O)cc1` (centres unmarked) [Compound 120, 3-(5-(3-(4-isopropylphenyl)-2-oxoimidazolidin-1-yl)-1-oxoisoindolin-2-yl)piperidine-2,6-dione], the IC50 on CRBN/DDB1 is 100 to 1000 nM. On CK1α, the DC50 is not above 0.1 µM.
For the molecule `COCc1cccc(N2C(=O)N(c3ccc4c(c3)CN(C3CCC(=O)NC3=O)C4=O)C[C@H]2C)c1` (stereo partly drawn) [Compound 149, 3-(5-((R)-3-(3-(methoxymethyl)phenyl)-4-methyl-2-oxoimidazolidin-1-yl)-1-oxoisoindolin-2-yl)piperidine-2,6-dione], the IC50 on CRBN/DDB1 was in the range of 100 to 1000 nM. The molecule also returned a DC50 at CK1α not above 0.1 µM.
As to `CN1CCN(c2ccc(N3CCN(c4ccc5c(c4)CN(C4CCC(=O)NC4=O)C5=O)C3=O)cc2)CC1` (centres unmarked) [Compound 163, 3-(5-(3-(4-(4-methylpiperazin-1-yl)phenyl)-2-oxoimidazolidin-1-yl)-1-oxoisoindolin-2-yl)piperidine-2,6-dione], the IC50 on CRBN/DDB1 fell in the range of 100 to 1000 nM. Also, the DC50 at CK1α fell in the range of 0.1 to 1 µM.
Take `O=C1CCC(N2Cc3cc(N4CC5(CC5)N(c5ccccc5)C4=O)ccc3C2=O)C(=O)N1` (centres unmarked) [Compound 152, 3-(1-oxo-5-(5-oxo-4-phenyl-4,6-diazaspiro[2.4]heptan-6-yl)isoindolin-2-yl)piperidine-2,6-dione]: the IC50 at CRBN/DDB1 lay in the range of 100 to 1000 nM. Also, the DC50 on CK1α is not above 0.1 µM.
Consider `Cc1ccc(N2CCN(c3ccc4c(c3)CN(C3CCC(=O)NC3=O)C4=O)C2=O)nc1` (centres unmarked) [Compound 141, 3-(5-(3-(5-methylpyridin-2-yl)-2-oxoimidazolidin-1-yl)-1-oxoisoindolin-2-yl)piperidine-2,6-dione], for which the DC50 on CK1α was not above 0.1 µM.
With `CC1CN(c2ccccc2)C(=O)N1c1ccc2c(c1)CN(C1CCC(=O)NC1=O)C2=O` (centres unmarked) [Compound 117, 3-(5-(5-methyl-2-oxo-3-phenylimidazolidin-1-yl)-1-oxoisoindolin-2-yl)piperidine-2,6-dione], the IC50 at CRBN/DDB1 fell in the range of 100 to 1000 nM. Moreover, the DC50 at CK1α lay in the range of 0.1 to 1 µM.
Turning to `N#Cc1cccc(N2CCN(c3ccc4c(c3)CN(C3CCC(=O)NC3=O)C4=O)C2=O)c1` (centres unmarked) [Compound 148, 3-(3-(2-(2,6-dioxopiperidin-3-yl)-1-oxoisoindolin-5-yl)-2-oxoimidazolidin-1-yl)benzonitrile], the DC50 at CK1α is not above 0.1 µM.
Still for that read-out and setting: in the case of `O=C1CCC(N2Cc3cc(N4CCN(c5ccc(C6(C(F)(F)F)CC6)cc5)C4=O)ccc3C2=O)C(=O)N1` (centres unmarked) [Compound 147, 3-(1-oxo-5-(2-oxo-3-(4-(1-(trifluoromethyl)cyclopropyl)phenyl)imidazolidin-1-yl)isoindolin-2-yl)piperidine-2,6-dione] it was not above 0.1 µM; in that of `Cc1cc(N2CCN(c3ccc4c(c3)CN(C3CCC(=O)NC3=O)C4=O)C2=O)ccn1` (centres unmarked) [Compound 103, 3-(5-(3-(2-methylpyridin-4-yl)-2-oxoimidazolidin-1-yl)-1-oxoisoindolin-2-yl)piperidine-2,6-dione], more than 1 µM.
